{
  "source": "patent US5215889A",
  "about": "“Catalytic and reactive polypeptides and methods for their preparation and use” (The Regents of the University of California, priority 1989, dated 1993)",
  "assay_in_all_cases": "Hydrolysis of DNP coumarin esters 1-3 by Fv",
  "format_in_all_cases": "biochemical, murine",
  "key": {"[1]": {"biological_target": "T1, MOPC315 Fv, wild type, Fv(315) (Mus musculus, UniProt P01729+P01822)", "T1 construct": "The Fv fragment (26 kD) is a heterodimer consisting of two peptides, VH (14 kD) and VL (12 kD); made in house; host or cells: MOPC315 myeloma ascites (Balb/c mice), IgA cleaved with pepsin", "T1 sequence (P01822 19-137)": "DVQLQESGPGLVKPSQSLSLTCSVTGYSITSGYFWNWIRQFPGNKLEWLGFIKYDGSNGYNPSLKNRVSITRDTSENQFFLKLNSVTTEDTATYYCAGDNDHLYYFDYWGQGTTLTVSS", "T1 sequence (P01729 20-129)": "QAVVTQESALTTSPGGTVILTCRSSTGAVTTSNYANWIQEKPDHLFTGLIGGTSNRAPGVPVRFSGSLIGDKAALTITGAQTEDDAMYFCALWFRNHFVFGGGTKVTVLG", "details": "pH 6.8", "method": "(§1) FIG. 22 is a Lineweaver-Burke plot of initial rate data obtained for the hydrolysis of 1 as described in Example 6 of the Experimental section herein. Four μl of a 100-fold concentrated solution of substrate 1 in DMSO was added to the 400 μl of Fv (115 nM) in buffer A while monitoring 7-hydroxycoumarin fluorescence at 25° C. (excitation:355nm; emission: 457 nm). A standard of 7-hydroxycoumarin was added at the completion of each assay to assess quenching of coumarin fluorescence by DNP at high substrate concentrations. The buffer background rate was subtracted from the initial rates. Each point represents the average velocity of at least duplicate experiments. Factor X, Factor Xa, or Russell's viper venom had no hydrolytic activity towards 1.\n(§2) The ability of wild type and mutant Fvs to hydrolyze esters 1-3 was assayed by measuring the rate of coumarin release fluorimetrically at pH 6.8 (Pollack et al. (1988) supra; Pollack (1989) supra). […] Under these conditions, Fv(Y34HL) turns over at least 11 times and still retains 44% of its activity. The loss of activity is likely due to the accumulation of the inhibitory reaction product 8. […] Ester 2 was a poor substrate (kcat (2)=0.015 min^-1); and the hydrolysis of 3 was not accelerated (kcat (3)<0.005 min^-1). […] The initial rate of hydrolysis of 1 by Fv(Y34HL) at pH 6.8 is approximately 45-fold faster than the reaction with either […] (Table 2). At pH 8.7, the reactivity of Fv(Y34HL) and Fv(315) both increase, but differentially (v[Fv(Y34HL ]/v[Fv(315)]=3.3, at 10 μM 1). Under these conditions Fv(Y34HL) catalytically hydrolyzes 1 while Fv(315) reacts stoichiometrically. The increased reactivity of Fv(315) at higher pH may be due to deprotonation of the tyrosine hydroxyl and subsequent transesterification to form a relatively stable phenol ester."}, "[2]": {"test_system": "MOPC315 Fv variant Fv(Y34FL), Tyr 34L to Phe", "details": "pH 6.8", "method": "as §1, §2"}, "[3]": {"biological_target": "T2, MOPC315 Fv variant Fv(Y34HL), Tyr 34L to His (Mus musculus, UniProt P01729+P01822, Y53H)", "T2 construct": "Antibody-derived VH was prepared by denaturing ion exchange chromatography of authentic MOPC315 Fv, obtained from pepsin digestion of purified IgA; lambda cII fusion with Factor Xa site (IleGluGlyArg) (N, cleaved yes); made in house; host or cells: VL: E. coli MZ1 (cII fusion, inclusion bodies); VH: pepsin-cleaved MOPC315 IgA from mouse ascites", "T2 sequence (P01729 with tags, fused parts or gaps Y53H)": "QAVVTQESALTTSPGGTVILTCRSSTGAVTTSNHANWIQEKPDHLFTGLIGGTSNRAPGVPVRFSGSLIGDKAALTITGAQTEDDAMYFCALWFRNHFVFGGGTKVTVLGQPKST", "T2 sequence (P01822 19-137)": "as the sequence (P01822 19-137) above", "details": "pH 6.8; SE (n = 3)", "method": "as §1, §2"}},
  "data": [
    {"smiles": "O=C(CCCCNc1ccc([N+](=O)[O-])cc1[N+](=O)[O-])Oc1ccc2ccc(=O)oc2c1", "note": "[compound 1, 7-hydroxycoumarin ester of 5-(2,4-dinitrophenyl)-aminopentanoic acid]", "values": [
      {"measurement": "kcat (Table 2, Fv(315))", "setting": "[1]", "value": 0.004, "unit": "min"},
      {"measurement": "kcat (Table 2, Fv(Y34FL))", "setting": "[2]", "value": 0.004, "unit": "min"},
      {"measurement": "kcat (Table 2, Fv(Y34HL))", "setting": "[3]", "value": "0.18 ± .03 min"}
    ]}
  ]
}
